7 compounds from patent publication US9340521B2, “Method for dual inhibition of SGLT1 and SGLT2 using diphenylmethane derivatives” (GREEN CROSS CORPORATION, priority 2013, dated 2016) can be followed below.

The target in one assay is Human SGLT2 (hSGLT2) (Homo sapiens (Human), UniProt P31639). Description: Inhibitory effects on human SGLT2 activities (14C-AMG uptake, sodium-dependent glucose transport assay). The format is cell-based. The following applies: hSGLT2-expressing CHO cells, 37° C. for 2 h, single determinations. The procedure, abridged:
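CHO cells stably expressing hSGLT2 were preincubated 10 min at 37 °C in choline (Na+-free) buffer, then exposed 2 h at 37 °C to compound in Na+ uptake buffer with 8 μM 14C-AMG and 1 mM unlabeled AMG. Radioactivity was scintillation counted; IC50 came from nonlinear regression.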

Another assay has as its target Human SGLT1 (hSGLT1) (Homo sapiens (Human), UniProt P13866). Nature of the assay: Inhibitory effects on human SGLT1 activities (14C-AMG uptake, sodium-dependent glucose transport assay). The assay is classed as cell-based. The settings on record: 37° C. for 2 h, single determinations.

Chain of Human SGLT2 (hSGLT2) (P31639 whole entry): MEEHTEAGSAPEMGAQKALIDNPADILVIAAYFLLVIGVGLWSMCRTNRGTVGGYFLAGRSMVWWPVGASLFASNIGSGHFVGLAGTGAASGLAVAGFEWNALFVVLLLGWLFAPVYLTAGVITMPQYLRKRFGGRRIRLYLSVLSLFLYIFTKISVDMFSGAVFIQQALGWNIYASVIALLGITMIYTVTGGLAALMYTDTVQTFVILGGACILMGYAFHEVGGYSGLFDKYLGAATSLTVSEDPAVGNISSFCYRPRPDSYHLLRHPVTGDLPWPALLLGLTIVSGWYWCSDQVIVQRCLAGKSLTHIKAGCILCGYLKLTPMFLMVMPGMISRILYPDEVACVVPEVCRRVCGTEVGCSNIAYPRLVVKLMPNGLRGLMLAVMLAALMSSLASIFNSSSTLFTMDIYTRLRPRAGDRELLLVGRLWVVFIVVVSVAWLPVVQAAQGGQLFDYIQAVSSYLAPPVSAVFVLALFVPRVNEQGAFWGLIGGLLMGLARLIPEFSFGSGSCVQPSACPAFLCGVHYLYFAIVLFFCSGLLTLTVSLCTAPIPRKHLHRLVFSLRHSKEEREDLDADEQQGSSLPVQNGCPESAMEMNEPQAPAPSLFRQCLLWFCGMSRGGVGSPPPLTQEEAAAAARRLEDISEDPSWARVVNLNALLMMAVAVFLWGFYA
Chain of Human SGLT1 (hSGLT1) (P13866 whole entry): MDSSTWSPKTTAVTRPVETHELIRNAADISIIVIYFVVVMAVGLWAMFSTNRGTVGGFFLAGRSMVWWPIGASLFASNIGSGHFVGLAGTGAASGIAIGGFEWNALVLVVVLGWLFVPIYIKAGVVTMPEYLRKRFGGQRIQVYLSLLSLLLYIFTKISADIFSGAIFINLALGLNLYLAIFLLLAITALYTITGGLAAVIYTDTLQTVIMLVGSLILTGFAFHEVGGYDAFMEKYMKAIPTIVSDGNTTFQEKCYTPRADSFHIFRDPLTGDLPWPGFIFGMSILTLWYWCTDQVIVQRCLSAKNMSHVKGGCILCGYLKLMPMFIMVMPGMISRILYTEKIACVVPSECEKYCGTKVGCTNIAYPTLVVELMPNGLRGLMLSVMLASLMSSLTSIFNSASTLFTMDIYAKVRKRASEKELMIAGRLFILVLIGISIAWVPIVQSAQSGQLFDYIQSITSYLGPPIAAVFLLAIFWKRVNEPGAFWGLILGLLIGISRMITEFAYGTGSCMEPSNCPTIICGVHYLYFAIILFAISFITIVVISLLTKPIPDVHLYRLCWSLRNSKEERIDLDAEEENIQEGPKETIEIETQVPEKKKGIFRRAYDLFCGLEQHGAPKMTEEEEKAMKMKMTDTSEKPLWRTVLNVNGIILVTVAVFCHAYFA

In the case of `CCc1ccc(Cc2cc([C@@H]3O[C@H](CO)[C@@H](O)[C@H](O)[C@H]3O)c3c(c2Cl)OCCC3)cc1` [Compound E014, (2S,3R,4R,5S,6R)-2-(8-Chloro-7-(4-ethylbenzyl)chroman-5-yl)-6-(hydroxymethyl)tetrahydro-2H-pyran-3,4,5-triol], the figures for the IC50 against Human SGLT2 (hSGLT2) and against Human SGLT1 (hSGLT1) were 0.75 nM and 61.5 nM, respectively.
In the same order, the values of `COc1ccc(Cc2cc([C@@H]3O[C@H](CO)[C@@H](O)[C@H](O)[C@H]3O)c3c(c2Cl)OCO3)cc1` [Compound E025, (2S,3R,4R,5S,6R)-2-(7-Chloro-6-(4-methoxybenzyl)benzo[d][1,3]dioxol-4-yl)-6-(hydroxymethyl)tetrahydro-2H-pyran-3,4,5-triol] are 1.2 nM and 89.4 nM.
In the same order, the values of `CSc1ccc(Cc2cc([C@@H]3O[C@H](CO)[C@@H](O)[C@H](O)[C@H]3O)c3c(c2Cl)OCO3)cc1` [Compound E049, (2S,3R,4R,5S,6R)-2-(7-Chloro-6-(4-(methylthio)benzyl)benzo[d][1,3]dioxol-4-yl)-6-(hydroxymethyl)tetrahydro-2H-pyran-3,4,5-triol] are 0.8 nM and 50.3 nM.
For `CCc1ccc(Cc2cc([C@@H]3O[C@H](CO)[C@@H](O)[C@H](O)[C@H]3O)c3c(c2Cl)CCCO3)cc1` [Compound E011, (2S,3R,4R,5S,6R)-2-(5-Chloro-6-(4-ethylbenzyl)chroman-8-yl)-6-(hydroxymethyl)tetrahydro-2H-pyran-3,4,5-triol] the same measures were 0.85 nM and 27 nM.
Regarding `C=Cc1ccc(Cc2cc([C@@H]3O[C@H](CO)[C@@H](O)[C@H](O)[C@H]3O)c3c(c2Cl)OCC3)cc1` [Compound E028, (2S,3R,4R,5S,6R)-2-(7-Chloro-6-(4-vinylbenzyl)-2,3-dihydrobenzofuran-4-yl)-6-(hydroxymethyl)tetrahydro-2H-pyran-3,4,5-triol], the results for the concentration for half-maximal inhibition (IC50) against Human SGLT2 (hSGLT2) and at Human SGLT1 (hSGLT1) were 0.37 nM and 163 nM, respectively.
Take `CCOc1ccc(Cc2cc([C@@H]3O[C@H](CO)[C@@H](O)[C@H](O)[C@H]3O)c3c(c2Cl)CCCO3)cc1` [Compound E009, (2S,3R,4R,5S,6R)-2-(5-Chloro-6-(4-ethoxybenzyl)chroman-8-yl)-6-(hydroxymethyl)tetrahydro-2H-pyran-3,4,5-triol]: the concentration for half-maximal inhibition (IC50) (commonly the midpoint of a concentration-inhibition curve) was 1.6 nM against Human SGLT2 (hSGLT2) and 77.2 nM on Human SGLT1 (hSGLT1).
In the same order, the values of `CCc1ccc(Cc2cc([C@@H]3O[C@H](CO)[C@@H](O)[C@H](O)[C@H]3O)c3c(c2Br)CCCC3)cc1` [Compound E057, (2S,3R,4R,5S,6R)-2-(4-Bromo-3-(4-ethylbenzyl)-5,6,7,8-tetrahydronaphthalen-1-yl)-6-(hydroxymethyl)tetrahydro-2H-pyran-3,4,5-triol] are 0.86 nM and 11 nM.
